# Test results reported in patent publication US20040033213A1, “Methods of modulating dendritic cells using adjuvants” (Corixa Corporation, priority 2002, published 2004).
# Experiments:
# Format in all cases: cell-based
# [1] = tested on: 6-7 day cultured human dendritic cells; experiment: ELISA of cytokines (IL-12 p40, IL-12 p70, TNF-α) in 22 h induction supernatants of cultured human dendritic cells; conditions: for IL-12 p40 / IL-12 p70 / TNF-α: 22 Hrs
# From the text: Recent articles have described how human dendritic cells can be derived in vitro from CD14 positive monocyte precursors in peripheral blood. A “buffy coat” preparation can now be commonly obtained from a unit of normal human peripheral blood from a blood bank on request. The leukocyte fraction was harvested from this buffy coat preparation using standard ficoll centrifugation techniques. Subsequently, the leukocyte fraction was labeled with anti-CD 14 antibody coupled to magnetic microbeads. This preparation was then passed over a magnet (Miltanyi Biotech) and CD14 positive monocytes were collected. These CD14 positive monocyte precursors were then cultured for 5-7 days in vitro (5×10^5 cells/ml) with GM-CSF (20 ng/ml) for the duration of the culture. […] After the 24 hour in vitro stimulation culture, cells were washed twice and stained with a panel of monoclonal antibodies specific for different cell surface activation and co-receptor molecules found on mature, activated DCs.
# Supernatants from DCs stimulated with LPS, MPL® immunostimulant-S, RC-527, RC-529, and RC-544 were collected and tested by ELISA analysis for cytokines.
# [2] = tested on: Human d7 Cultured Dendritic Cells; experiment: Flow cytometry phenotype analysis of human d7 cultured dendritic cells after 24 h stimulation; conditions: for HLA-DR MFI: 7 day DCs, 24 h stimulation
# [3] = tested on: murine bone marrow derived DCs + D011.10 T cells; experiment: APC function of ova-pulsed, lipid A potentiated murine DCs co-cultured with D011.10 T cells (cytokine ELISA)
# From the text: These antigen pulsed, lipid A potentiated cells were then washed thoroughly and titered against ova-specific T cell effector cells in vitro at an APC: T cell ratio titration of 1:1 out to as high as 1:512. The effector T cells in this in vitro assay were the antigen naive, but antigen (ova) specific, MHC restricted I-A^d splenic T cells from transgenic D011.10 mice.
# D011.10 TCR-transgenic mice were used in these experiments as donors of antigen specific naive T cells. In their germline DNA these mice contain rearranged TCR-Vα and -Vβ genes that encode a T cell receptor (TCR) specific for the ovalbumin peptide 323-339 bound to IA^d (Balb/c) Class II MHC molecules. The transgenic ova peptide specific TCR can be detected with the KJ1-26 monoclonal antibody (mAb) that binds only to this particular TCR heterodimer. These cells provide a ready source of “normal” antigen (ova)-specific effector T cells. Effective antigen-mediated APC stimulation of those T cells is generally measured by ELISA quantitation of IL-2 or IFN-γ in the culture supernatants of DC+D011.10 T cells after 24-48 hours of incubation.
# In one experiment, murine bone marrow derived DCs (6 day cultures) were pulsed with ova (50 μg/ml-5×10^5 cells/ml) and then potentiated overnight with LPS(R595), MPL® immunostimulant-S, RC-527, RC-529 or RC-544 prior to being cultured together with naive D011.10 effector T cells (FIGS. 1-7). The APC function of these DCs as measured by their ability to stimulate IL-2, IFN-γ IL-12 (p70) and IL-12 (p40) secretion in the DC+D011.10 co-culture systems was analyzed. All of the data shown in FIGS. 1-7 was developed from DCs maintained in lipid A induction cultures for either 15 or 38 hours prior to use in the T cell assay.
# [4] = Exp. # 092398, Day 7, LPS 10 ng/ml, others 100 ng/ml
# [5] = Exp. # 093098, LPS 10 ng/ml, others 100 ng/ml
# [6] = Exp. 091698, 24 h, LPS 10 ng/ml, others 100 ng/ml
# [7] = Exp. 092398, 24 h, LPS 10 ng/ml, others 100 ng/ml
# [8] = Exp. 093098, 24 h, LPS 10 ng/ml, others 100 ng/ml
smiles,measurement,setting,value
"CCCCCCCCCCCCCC(=O)O[C@H](CCCCCCCCCCC)CC(=O)NCCO[C@@H]1O[C@H](CO)[C@@H](OP(=O)(O)O)[C@H](OC(=O)C[C@@H](CCCCCCCCCCC)OC(=O)CCCCCCCCCCCCC)[C@H]1NC(=O)C[C@@H](CCCCCCCCCCC)OC(=O)CCCCCCCCCCCCC.CCN(CC)CC [RC-529, 2-[(R)-3-Tetradecanoyloxytetradecanoylamino]ethyl 2-Deoxy-4-O-phosphono-3-O-[(R)-3-tetradecanoyoxytetradecanoyl]-2-[(R)-3-tetradecanoyoxytetradecanoylamino]-β-D-glucopyranoside triethylammonium salt]",IL-12 p40,"[1]; Exp. # 091698, LPS 10 ng/ml, others 100 ng/ml","38,700 pg/mL/5 × 10^5 Cells"
same,IL-12 p70,"[1]; Exp. # 092398 (second line, Day7), LPS 10 ng/ml, others 100 ng/ml",215.3 pg/ml/5 × 10^5 Cells
same,IL-12 p40,[1]; [4],"127,500 pg/mL/5 × 10^5 Cells"
same,TNF-α,[1]; [4],"7,400 pg/mL/5 × 10^5 Cells"
same,IL-12 p70,"[1]; Exp. # 092398 as printed (first line of section), LPS 10 ng/ml, others 100 ng/ml",4.2 pg/ml/5 × 10^5 Cells
same,IL-12 p70,"[1]; Exp. # 092398 as printed (third line of section), LPS 10 ng/ml, others 100 ng/ml",28.2 pg/ml/5 × 10^5 Cells
same,IL-12 p40,[1]; [5],"60,700 pg/mL/5 × 10^5 Cells"
same,TNF-α,[1]; [5],372 pg/mL/5 × 10^5 Cells
same,IL-12 (p40) expression (in words),"[1]; all three experiments, LPS 10 ng/ml, others 100 ng/ml",also stimulated IL-12 (p40) responses
same,IL-12 (p70) (in words),[1]; the one donor in which LPS and MPL-S gave a significant amount,high levels of IL-12 (p70)
same,TNF-α secretion (in words),[1]; three donors,moderately lower than the effect due to RC-527
same,CD 1a % positive cells,[2]; [6],94.3%
same,CD 1a MFI,[2]; [6],9.29
same,CD 4 % positive cells,[2]; [6],77.0%
same,CD 4 MFI,[2]; [6],2.44
same,CD 14 % positive cells,[2]; [6],7.5%
same,CD 35 % positive cells,[2]; [6],47.6%
same,CD 35 MFI,[2]; [6],2.66
same,CD 40 MFI,[2]; [6],22.0
same,CD 44 MFI,[2]; [6],285
same,CD 54 MFI,[2]; [6],28.2
same,CD 62 L % positive cells,[2]; [6],6.4%
same,CD 69 % positive cells,[2]; [6],4.4%
same,CD 80 % positive cells,[2]; [6],98.9%
same,CD 80 MFI,[2]; [6],6.19
same,CD 83 % positive cells,[2]; [6],71.0%
same,CD 83 MFI,[2]; [6],2.89
same,CD 86 % positive cells,[2]; [6],98.7%
same,CD 86 MFI,[2]; [6],9.30
same,CD 95 % positive cells,[2]; [6],53.8%
same,CD 95 MFI,[2]; [6],1.12
same,HLA-DR MFI,"[2]; Exp. 091698, LPS 10 ng/ml, others 100 ng/ml",88.2
same,CD 1a % positive cells,[2]; [7],86.5%
same,CD 1a MFI,[2]; [7],5.47
same,CD 4 % positive cells,[2]; [7],71.6%
same,CD 4 MFI,[2]; [7],2.65
same,CD 14 % positive cells,[2]; [7],4.2%
same,CD 35 % positive cells,[2]; [7],58.8%
same,CD 35 MFI,[2]; [7],2.92
same,CD 40 MFI,[2]; [7],31.5
same,CD 54 MFI,[2]; [7],36.6
same,CD 62 L % positive cells,[2]; [7],11.1%
same,CD 69 % positive cells,[2]; [7],11.0%
same,CD 80 % positive cells,[2]; [7],99.1%
same,CD 80 MFI,[2]; [7],8.46
same,CD 83 % positive cells,[2]; [7],94.7%
same,CD 83 MFI,[2]; [7],3.32
same,CD 86 % positive cells,[2]; [7],99.9%
same,CD 86 MFI,[2]; [7],25.3
same,CD 95 % positive cells,[2]; [7],90.4%
same,CD 95 MFI,[2]; [7],1.43
same,αC5aR + GAR Alexa % positive cells,[2]; [7],53.4%
same,CD 44 MFI,"[2]; Exp. 092398, 24 h, LPS 10 ng/ml, others 100 ng/ml, values printed with a trailing +",442+
same,GAR-Alexa % positive cells,"[2]; Exp. 092398, 24 h, secondary reagent staining, LPS 10 ng/ml, others 100 ng/ml",2.4%
same,HLA-DR MFI,"[2]; Exp. 092398, LPS 10 ng/ml, others 100 ng/ml",158.8
same,CCR 6 % positive cells,[2]; [8],5.3%
same,CD 1a % positive cells,[2]; [8],80.1%
same,CD 1a MFI,[2]; [8],6.51
same,CD 3 % positive cells,[2]; [8],27.3%
same,CD 3 MFI,[2]; [8],3.87
same,CD 4 % positive cells,[2]; [8],77.9%
same,CD 4 MFI,[2]; [8],2.97
same,CD 11c % positive cells,[2]; [8],92.4%
same,CD 11c MFI,[2]; [8],6.82
same,CD 14 % positive cells,[2]; [8],3.9%
same,CD 40 MFI,[2]; [8],26.1
same,CD 54 MFI,[2]; [8],36.4
same,CD 62 L % positive cells,[2]; [8],3.4%
same,CD 80 % positive cells,[2]; [8],99.1%
same,CD 80 MFI,[2]; [8],10.7
same,CD 83 % positive cells,[2]; [8],82.4%
same,CD 83 MFI,[2]; [8],3.38
same,CD 86 % positive cells,[2]; [8],99.7%
same,CD 86 MFI,[2]; [8],22.0
same,CD 123 % positive cells,[2]; [8],44.1%
same,CD 123 MFI,[2]; [8],1.90
same,αC5aR + Alexa 488 % positive cells,[2]; [8],48.6%
same,αC5aR + Alexa 488 MFI,[2]; [8],10.4
same,HLA-DR MFI,"[2]; Exp. 093098, LPS 10 ng/ml, others 100 ng/ml",161.5
same,upregulation of HLA-DR expression (in words),"[2]; RC-529 compared with RC-544, all three experiments",slightly more effective
same,stimulating the expression of HLA-DR and co-stimulatory molecules (in words),"[2]; RC-529 compared with RC-544, three experiments",very comparable effects
same,IFN-γ release by D011.10 T cells (in words),"[3]; DCs precultured 38 hours, FIG. 3",very comparable to each other
same,IL-2 secretion (in words),"[3]; DCs prestimulated 15 hours, all T cell:APC ratios, FIG. 1",comparable in their ability to stimulate IL-2 secretion
same,IL-12 (p70) in DC+D011.10 co-cultures (in words),[3]; FIG. 5,weakest ability
same,release of IL-12 (p40) homodimer in DC+D011.10 co-cultures (in words),[3]; FIG. 7,moderately less potent than either RC-544 or MPL® immunostimulant-S
